Key:
CD44 protein = conditions: peptide screened from 12-mer phage peptide library; ref [25]; cited from earlier work
Description: The purpose of the current study was to validate the specificity and affinity of RP-1 in both in vitro and in vivo experiment ...

[1] = system: CD44 on MKN-28-CD44-ox cells; assay: Confocal immunofluorescence of peptide binding to CD44-overexpressing MKN-28 cells; type: cell-based, human; conditions: 100 μM Alexa Fluor 594 labeled peptide, 20 min, fixed cells, confocal microscopy
Experimental: (§1) Plasmids containing cDNA of CD44 protein were synthesized by GENECHEM, Shanghai, China. Using Pfu polymerase and two oligonucleotides ([…] and […]), the CD44 cDNA was cloned into Xhol and ECOR1 sites of GV146 (GENECHEM, Shanghai, China) by recombinant PCR. Then, CD44-negative MNK-28 cells were transfected with the plasmid with Lipofectamine 2000 reagent (Invitrogen, California, USA), and then the efficiency of CD44 expression in MKN-28 cells was tested. Finally, two cell lines were generated as following: MKN-28-con with no CD44 expression and MKN-28-CD44-ox with CD44 overexpression labeled with enhanced green fluorescent protein (EGFP).
(§2) For the preparation of confocal laser microscopy, the transfected MNK-28 cancer cells were washed with phosphate buffer saline (PBS) three times, then fixed with 4% paraformaldehyde at ambient temperature for 30 min, and blocked with 5% BSA (w/v) in PBS at 37°C for 1 h. The blocked cells were sequentially incubated with 100 μM RP-1 or WYP labeled with Alexa Fluor 594 for 20 min, and counterstained with 4,6-diamidino-2-phenylindole (DAPI). […] For the evaluation of the correlation of fluorescent intensities between CD44-EGFP and RP-1-Fluor 594, a semi-quantitative analysis was performed with ImageJ 1.48v software (National Institutes of Health, Maryland, USA) by randomly selecting and observing 10 fields of vision. […]

[2] = system: MKN-28 cells not expressing CD44 transgenes; assay: Confocal immunofluorescence of peptide binding to non-CD44 MKN-28 cells; type: cell-based, human; conditions: 100 μM Alexa Fluor 594 labeled peptide, 20 min, co-culture with CD44-overexpressing cells, confocal microscopy
Experimental: as §1, §2

SGC-7901 tumor tissue = assay: Fluorescence microscopy of frozen xenograft sections after injection; type: in vivo, athymic nude mice; conditions: 3 h after i.v. injection of peptide
Experimental: Once fluorescence signal reached its peak at the site of tumor, subcutaneous tumor tissues were harvested for further experiment. After shock-frozen with liquid nitrogen, tumor tissues were cut into 5 μm sections and fixed in 4% paraformaldehyde at ambient temperature for 30 min. The coverslips were mounted with glycerol–gelatin containing anti-fading buffer (Bioworld, Minnesota, USA). Finally, the fluorescence images of frozen sections were captured with a fluorescent microscope (Nikon-Eclipse, Tokyo, Japan)

[3] = system: SGC-7901 subcutaneous xenograft; assay: In vivo fluorescence imaging and biodistribution in SGC-7901 xenograft mice
Experimental: All animal procedures were approved by the Ethics Committee of Xi’an Jiaotong University and conducted in accordance with the Helsinki Declaration (1975). Athymic nude mice (male, 4–5 weeks old, with a body weight of 20–25 g) were obtained from the Animal Experiment Center of Xi’an Jiaotong University, Xi’an, China. The SGC-7901 tumor xenografts were generated by subcutaneous injection of 5–8 × 10^6 SGC-7901 cells suspended in 200 μL culture medium into the left axilla of mice. The cells were allowed to grow for 2 weeks until tumor volume reached an estimate of 1 cm^3.
In vivo fluorescence imaging was performed with the IVIS Spectrum Imaging System and analyzed with the IVIS Living Imaging 4.2 software (Xenogen, California, USA). Identical imaging settings (exposure time: 40s; binning: 16; lens aperture [f/stop]: 4; field of view: 13.3) were used for capturing images. Fluorescent intensity was normalized and presented as (p/sec/cm^2/sr)/(μW/cm^2). The mice from the experimental group (n = 10) and control group (n = 10) were intravenously injected with 1 mg/kg FITC-RP-1 and FITC-WYP, respectively. Mice anesthetized with isoflurane were subjected to optical imaging at each hour since 1h after injection. Finally, solid tumors, tissues, and organs were all harvested and rinsed with PBS for further analysis of the distribution of FITC-RP-1.

[4] = excised tissue, 3 h after i.v. FITC-RP-1, 1 μg/g

Sequence: WHPWSYLWTQQA [RP-1]
- binding to CD44 protein (CD44 protein): can specifically bind to CD44 protein
- binding of peptide to CD44 on the cell membrane [1]: apparent binding of RP-1 peptides to CD44 on the cell membrane
- binding of peptide to cells without CD44 [2]: bound considerably lower amounts of RP-1 peptide
- fluorescence on tumor cells in frozen sections (SGC-7901 tumor tissue): fluorescence signals were observed both on cell membrane and in cytoplasm
- organs with accumulation (fluorescence of excised tissues) ([3]; 3 h after i.v. injection of FITC-labeled peptide, 1 μg/g): accumulation of RP-1 in tumor tissue and liver
- fluorescence signal remaining (elimination) ([3]; 6 h after intravenous injection): almost undetectable
- fluorescent intensity, kidney [3, 4]: 2.00 × 10^8 (p/sec/cm^2/sr) /(μW/cm^2)
- fluorescent intensity, liver [3, 4]: 5.58 × 10^8 (p/sec/cm^2/sr) /(μW/cm^2)
- fluorescent intensity, stomach [3, 4]: 2.28 × 10^8 (p/sec/cm^2/sr) /(μW/cm^2)
- fluorescent intensity, tumor ([3]; excised tissue, 3 h after i.v. FITC-RP-1, 1 μg/g, tumor vs other organs P < 0.001): 1.14 × 10^9 (p/sec/cm^2/sr) /(μW/cm^2)

— PMC5444726, “A CD44-specific peptide, RP-1, exhibits capacities of assisting diagnosis and predicting prognosis of gastric cancer” (Oncotarget, 2017)
